# Measurements from PMC9669016, “First-in-human phase Ia study of the PI3Kα inhibitor CYH33 in patients with solid tumors” (Nature Communications, 2022).
# Read-outs that look alike come from different tables or passages of the source.
# Assay: Clinical pharmacokinetics: plasma CYH33 and I27 by LC/MS/MS
# Assay type: in vivo, human
# Details: for AUC(0-t) / Cmax / Tmax / concentration at 0.5 h / concentration at 24 h / concentration at 72 h / concentration at 4 h / concentration at 12 h / concentration at 0 h / AUC(0-inf) / half-life: human, plasma; for AUC(0-inf): read-out: AUC0-∞, mean (CV%)
# Description: The PK characteristics of CYH33 and its active metabolite I27 were evaluated after single and multiple dose administrations. PK data were obtained from 37 patients from 7 dose cohorts: 1 mg (n = 1), 5 mg (n = 1), 10 mg (n = 2), 20 mg (n = 6), 30 mg (n = 12), 40 mg (n = 13), and 60 mg (n = 2). Intensive and sparse PK sampling was performed. Prior to initiating a continuous daily treatment cycle, the first 5 patients participated in a single dose PK treatment period with a 7-day washout in order to determine the terminal-phase half-life (t1/2) of CYH33 and its active metabolite I27. Based on the single dose PK data for CYH33 of the first 5 patients at doses of 1, 5, 10 and 20 mg, the PK and metabolic characteristics of CYH33 and I27 were evaluated. Combined with the pre-specified rules in the protocol and deliberation from the SMC, subsequent patients directly entered the continuous dose phase.
# Blood samples for PK evaluation were collected at: (1) during the single dose phase: on day 1 pre-dose and 0.5, 1, 2, 4, 8, 12, 24, 36, 48, and 72 h post-dose; (2) during the continuous dose phase: C1D1/Cycle 1 Day 28 pre-dose, and 0.5, 1, 2, 3, 4, 6, 8, 12, and 24 h post-dose; and C1D8/Day 15 pre-dose. Plasma concentrations of CYH33 and I27 were analyzed using a liquid chromatography-tandem mass spectrometry (LC/MS/MS) assay (Shimadzu Corporation, LC-30AD) with a lower limit of quantification (LLOQ) of 2.585 ng/mL and 1.0 ng/mL for CYH33 and I27, respectively. […] Blood samples for measuring the FBG level were collected within 30 min before dosing on C1D1, C1D15, and on the first day of subsequent treatment cycles.
# [1] = CYH33, Cycle 1 Day 28, 1 mg (n=1)
# [2] = CYH33, Cycle 1 Day 28, 5 mg (n=1)
# [3] = CYH33, Cycle 1 Day 28, 10 mg (n=2)
# [4] = CYH33, Cycle 1 Day 28, 20 mg (n=6)
# [5] = CYH33, Cycle 1 Day 28, 30 mg (n=9)
# [6] = CYH33, Cycle 1 Day 28, 40mg (n=7)
# [7] = CYH33, Cycle 1 Day 28, 60 mg (n=2)
smiles,measurement,setting,value
"COC(=O)Nc1cc(C(F)(F)F)c(-c2nc(N3CCOCC3)c3cc(CN4CCN(S(C)(=O)=O)CC4)cn3n2)cn1 [CYH33, methyl (5-(6-((4-(methylsulfonyl)piperazin-1-yl)methyl)−4-morpholinopyrrolo[2,1-f][1,2,4]triazin-2-yl)−4-(trifluoromethyl)pyridin-2-yl)carbamate]","Cmin, mean",[1],0 ng/mL
same,"Rac_AUC, mean",[1],2.0
same,"Rac_Cmax, mean",[1],1.0
same,"CLss/F, mean",[2],8.6 L/h
same,"Cmin, mean",[2],15.1 ng/mL
same,"Rac_AUC, mean",[2],2.2
same,"Rac_Cmax, mean",[2],2.3
same,"CLss/F, mean",[3],8.2 L/h
same,"Cmin, mean",[3],33.4 ng/mL
same,"Rac_AUC, mean",[3],2.0
same,"Rac_Cmax, mean",[3],1.8
same,"CLss/F, mean",[4],8.1 L/h
same,"Cmin, mean",[4],80.8 ng/mL
same,"Rac_AUC, mean",[4],4.2
same,"Rac_Cmax, mean",[4],3.3
same,"CLss/F, mean",[5],11.0 L/h
same,"Cmin, mean",[5],111.4 ng/mL
same,"Rac_AUC, mean",[5],2.9
same,"Rac_Cmax, mean",[5],1.9
same,"CLss/F, mean",[6],11.8 L/h
same,"Cmin, mean",[6],126.5 ng/mL
same,"Rac_AUC, mean",[6],4.3
same,"Rac_Cmax, mean",[6],3.2
same,"CLss/F, mean",[7],15.9 L/h
same,"Cmin, mean",[7],133.2 ng/mL
same,"Rac_AUC, mean",[7],3.2
same,"Rac_Cmax, mean",[7],2.2
same,average accumulation of exposure (AUC0-24h) at steady state vs Cycle 1 Day 1,daily dosing,around 2.9 fold
same,time to steady state,daily dosing,≤ 8 days
same,AUC(0-t),"oral, 1 mg, CYH33, Cycle 1 Day 1, 1 mg (n = 1), read-out: AUC0-24h, mean (CV%)",26 ng·h/mL
same,Cmax,"oral, 1 mg, CYH33, Cycle 1 Day 1, 1 mg (n = 1), read-out: Cmax, mean (CV%)",4.6 ng/mL
same,Tmax,"oral, 1 mg, CYH33, Cycle 1 Day 1, 1 mg (n = 1), read-out: Tmax, median (min-max)",1 h
same,AUC(0-t),"oral, 1 mg, CYH33, Cycle 1 Day 28, 1 mg (n=1), read-out: AUC0-24h, mean",51.6 ng·h/mL
same,Cmax,"oral, 1 mg, CYH33, Cycle 1 Day 28, 1 mg (n=1), read-out: Cmax, mean",4.8 ng/mL
same,Tmax,"oral, 1 mg, CYH33, Cycle 1 Day 28, 1 mg (n=1), read-out: Tmax, median",4 h
same,AUC(0-t),"oral, 5 mg, CYH33, Cycle 1 Day 1, 5 mg (n = 1), read-out: AUC0-24h, mean (CV%)",266 ng·h/mL
same,Cmax,"oral, 5 mg, CYH33, Cycle 1 Day 1, 5 mg (n = 1), read-out: Cmax, mean (CV%)",24.6 ng/mL
same,Tmax,"oral, 5 mg, CYH33, Cycle 1 Day 1, 5 mg (n = 1), read-out: Tmax, median (min-max)",2 h
same,AUC(0-t),"oral, 5 mg, CYH33, Cycle 1 Day 28, 5 mg (n=1), read-out: AUC0-24h, mean",582 ng·h/mL
same,Cmax,"oral, 5 mg, CYH33, Cycle 1 Day 28, 5 mg (n=1), read-out: Cmax, mean",56.2 ng/mL
same,Tmax,"oral, 5 mg, CYH33, Cycle 1 Day 28, 5 mg (n=1), read-out: Tmax, median",1 h
same,AUC(0-t),"oral, 10 mg, CYH33, Cycle 1 Day 1, 10 mg (n = 2), read-out: AUC0-24h, mean (CV%)",624 ng·h/mL
same,Cmax,"oral, 10 mg, CYH33, Cycle 1 Day 1, 10 mg (n = 2), read-out: Cmax, mean (CV%)",43.1 ng/mL
same,Tmax,"oral, 10 mg, CYH33, Cycle 1 Day 1, 10 mg (n = 2), read-out: Tmax, median (min-max)",4 h
same,AUC(0-t),"oral, 10 mg, CYH33, Cycle 1 Day 28, 10 mg (n=2), read-out: AUC0-24h, mean",1230 ng·h/mL
same,Cmax,"oral, 10 mg, CYH33, Cycle 1 Day 28, 10 mg (n=2), read-out: Cmax, mean",78.9 ng/mL
same,Tmax,"oral, 10 mg, CYH33, Cycle 1 Day 28, 10 mg (n=2), read-out: Tmax, median",3 h
same,AUC(0-t),"oral, 20 mg, CYH33, Cycle 1 Day 1, 20 mg (n = 5), read-out: AUC0-24h, mean (CV%)",763 ng·h/mL
same,Cmax,"oral, 20 mg, CYH33, Cycle 1 Day 1, 20 mg (n = 5), read-out: Cmax, mean (CV%)",56.3 ng/mL
same,Tmax,"oral, 20 mg, CYH33, Cycle 1 Day 1, 20 mg (n = 5), read-out: Tmax, median (min-max)",2 h
same,AUC(0-t),"oral, 20 mg, CYH33, Cycle 1 Day 28, 20 mg (n=6), read-out: AUC0-24h, mean",2630 ng·h/mL
same,Cmax,"oral, 20 mg, CYH33, Cycle 1 Day 28, 20 mg (n=6), read-out: Cmax, mean",154 ng/mL
same,Tmax,"oral, 20 mg, CYH33, Cycle 1 Day 28, 20 mg (n=6), read-out: Tmax, median",3 h
same,AUC(0-t),"oral, 30 mg, CYH33, Cycle 1 Day 1, 30 mg (n = 12), read-out: AUC0-24h, mean (CV%)",1300 ng·h/mL
same,Cmax,"oral, 30 mg, CYH33, Cycle 1 Day 1, 30 mg (n = 12), read-out: Cmax, mean (CV%)",96.5 ng/mL
same,Tmax,"oral, 30 mg, CYH33, Cycle 1 Day 1, 30 mg (n = 12), read-out: Tmax, median (min-max)",3.5 h
same,AUC(0-t),"oral, 30 mg, CYH33, Cycle 1 Day 28, 30 mg (n=9), read-out: AUC0-24h, mean",3530 ng·h/mL
same,Cmax,"oral, 30 mg, CYH33, Cycle 1 Day 28, 30 mg (n=9), read-out: Cmax, mean",187 ng/mL
same,Tmax,"oral, 30 mg, CYH33, Cycle 1 Day 28, 30 mg (n=9), read-out: Tmax, median",3 h
same,AUC(0-t),"oral, 40 mg, CYH33, Cycle 1 Day 1, 40 mg (n = 3), read-out: AUC0-24h, mean (CV%)",1320 ng·h/mL
same,Cmax,"oral, 40 mg, CYH33, Cycle 1 Day 1, 40 mg (n = 3), read-out: Cmax, mean (CV%)",97.9 ng/mL
same,Tmax,"oral, 40 mg, CYH33, Cycle 1 Day 1, 40 mg (n = 3), read-out: Tmax, median (min-max)",2 h
same,AUC(0-t),"oral, 40 mg, CYH33, Cycle 1 Day 28, 40mg (n=7), read-out: AUC0-24h, mean",3940 ng·h/mL
same,Cmax,"oral, 40 mg, CYH33, Cycle 1 Day 28, 40mg (n=7), read-out: Cmax, mean",224 ng/mL
same,Tmax,"oral, 40 mg, CYH33, Cycle 1 Day 28, 40mg (n=7), read-out: Tmax, median",4 h
same,AUC(0-t),"oral, 60 mg, CYH33, Cycle 1 Day 1, 60 mg (n = 4), read-out: AUC0-24h, mean (CV%)",1870 ng·h/mL
same,Cmax,"oral, 60 mg, CYH33, Cycle 1 Day 1, 60 mg (n = 4), read-out: Cmax, mean (CV%)",123 ng/mL
same,Tmax,"oral, 60 mg, CYH33, Cycle 1 Day 1, 60 mg (n = 4), read-out: Tmax, median (min-max)",4 h
same,AUC(0-t),"oral, 60 mg, CYH33, Cycle 1 Day 28, 60 mg (n=2), read-out: AUC0-24h, mean",4010 ng·h/mL
same,Cmax,"oral, 60 mg, CYH33, Cycle 1 Day 28, 60 mg (n=2), read-out: Cmax, mean",220 ng/mL
same,Tmax,"oral, 60 mg, CYH33, Cycle 1 Day 28, 60 mg (n=2), read-out: Tmax, median",2.5 h
same,concentration at 0.5 h,"oral, C1D1, 1 mg",1.9 ng/mL
same,concentration at 24 h,"oral, C1D1, 1 mg",0 ng/mL
same,concentration at 0.5 h,"oral, C1D1, 5 mg",0 ng/mL
same,concentration at 24 h,"oral, C1D1, 5 mg",5.9 ng/mL
same,concentration at 72 h,"oral, C1D1, 5 mg",0 ng/mL
same,concentration at 0.5 h,"oral, C1D1, 10 mg",14 ng/mL
same,concentration at 4 h,"oral, C1D1, 10 mg",43.1 ng/mL
same,concentration at 24 h,"oral, C1D1, 10 mg",17.4 ng/mL
same,concentration at 72 h,"oral, C1D1, 10 mg",3.2 ng/mL
same,concentration at 4 h,"oral, C1D1, 20 mg",43.9 ng/mL
same,concentration at 12 h,"oral, C1D1, 20 mg",29.5 ng/mL
same,concentration at 24 h,"oral, C1D1, 20 mg",22.3 ng/mL
same,concentration at 72 h,"oral, C1D1, 20 mg",7.1 ng/mL
same,concentration at 4 h,"oral, C1D1, 30 mg",81.2 ng/mL
same,concentration at 12 h,"oral, C1D1, 30 mg",49.9 ng/mL
same,concentration at 0.5 h,"oral, C1D1, 40 mg",33.8 ng/mL
same,concentration at 24 h,"oral, C1D1, 40 mg",45.2 ng/mL
same,concentration at 0.5 h,"oral, C1D1, 60 mg",21.9 ng/mL
same,concentration at 24 h,"oral, C1D1, 60 mg",61.4 ng/mL
same,concentration at 0 h,"oral, C1D28, 1 mg",0 ng/mL
same,concentration at 0 h,"oral, C1D28, 5 mg",15.5 ng/mL
same,concentration at 0 h,"oral, C1D28, 10 mg",34.8 ng/mL
same,concentration at 0 h,"oral, C1D28, 20 mg",85.1 ng/mL
same,concentration at 0 h,"oral, C1D28, 30 mg",113 ng/mL
same,concentration at 24 h,"oral, C1D28, 30 mg",124 ng/mL
same,concentration at 0 h,"oral, C1D28, 40 mg",141 ng/mL
same,concentration at 0 h,"oral, C1D28, 60 mg",147 ng/mL
same,AUC(0-inf),"oral, CYH33, Cycle 1 Day 1, 1 mg (n = 1)",36.8 ng·h/mL
same,AUC(0-inf),"oral, CYH33, Cycle 1 Day 1, 5 mg (n = 1)",429 ng·h/mL
same,half-life,"oral, CYH33, Cycle 1 Day 1, 5 mg (n = 1), read-out: t1/2, mean (CV%) (converted)",19.2 h
same,AUC(0-inf),"oral, CYH33, Cycle 1 Day 1, 10 mg (n = 2)",1090 ng·h/mL
same,half-life,"oral, CYH33, Cycle 1 Day 1, 10 mg (n = 2), read-out: t1/2, mean (CV%) (converted)",20.2 h
same,AUC(0-inf),"oral, CYH33, Cycle 1 Day 1, 20 mg (n = 5)",2190 ng·h/mL
same,half-life,"oral, CYH33, Cycle 1 Day 1, 20 mg (n = 5), read-out: t1/2, mean (CV%) (converted)",20.8 h
same,Tmax,"po, dose range 1–60 mg, read-out: median time to maximum plasma concentration (Tmax)",1 to 4 h
same,half-life,"oral CYH33, read-out: t1/2 (converted)",~20 h
